Laboratory results from ChEMBL document CHEMBL1201862, “PubChem BioAssay data set” (2004).
Activity calls are given as the source filed them.

Columns and labels:
[1] = molecular target: T1, Endoribonuclease toxin MazF (Escherichia coli K-12, UniProt P0AE70); test: activation of MazEF endoribonuclease cleavage – biochemical, fluorescence, single-stranded RNA substrate, uHTS hits, dose response (AID 588481); type: functional
T1 sequence (P0AE70 whole entry): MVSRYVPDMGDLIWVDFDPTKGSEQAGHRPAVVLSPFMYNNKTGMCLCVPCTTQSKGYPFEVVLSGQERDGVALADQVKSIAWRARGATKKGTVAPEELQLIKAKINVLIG

[2] = molecular target: Protein Rev (Human immunodeficiency virus type 1 group M subtype B (isolate HXB2)(HIV-1), UniProt P04618); test: blockers of HIV Rev/RRE RNA complex – biochemical, fluorescence polarization, HIV-1, dose response (AID 434976); parameters: species or system Human immunodeficiency virus 1
Chain of Protein Rev (P04618 whole entry): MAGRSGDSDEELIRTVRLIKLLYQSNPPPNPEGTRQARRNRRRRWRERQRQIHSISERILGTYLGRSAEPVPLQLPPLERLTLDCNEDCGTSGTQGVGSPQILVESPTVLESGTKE

[3] = molecular target: Female germline-specific tumor suppressor gld-1 (Caenorhabditis elegans, UniProt Q17339); test: blockers of GLD-1/TGE RNA complex formation – biochemical, fluorescence polarization, C. elegans, dose response (AID 2802);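 note: fluorescence polarization of labeled TGE RNA bound by purified gld-1 protein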
Chain of Female germline-specific tumor suppressor gld-1 (Q17339 whole entry): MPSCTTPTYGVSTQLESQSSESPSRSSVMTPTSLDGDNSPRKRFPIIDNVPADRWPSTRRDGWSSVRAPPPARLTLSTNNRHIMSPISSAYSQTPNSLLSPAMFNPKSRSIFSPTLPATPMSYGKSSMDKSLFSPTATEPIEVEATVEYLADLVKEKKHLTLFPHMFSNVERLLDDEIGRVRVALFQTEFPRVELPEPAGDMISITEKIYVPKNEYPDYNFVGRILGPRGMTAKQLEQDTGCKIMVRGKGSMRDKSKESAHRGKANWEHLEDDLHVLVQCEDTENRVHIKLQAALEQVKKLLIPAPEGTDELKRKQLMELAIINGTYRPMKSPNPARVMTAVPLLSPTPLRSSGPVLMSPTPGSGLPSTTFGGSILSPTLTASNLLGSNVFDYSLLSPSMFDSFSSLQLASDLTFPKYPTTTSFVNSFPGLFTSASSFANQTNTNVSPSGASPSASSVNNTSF

[4] = molecular target: T1, Endoribonuclease toxin MazF; test: substrate-only fluorescence increase artefacts – biochemical, single-stranded RNase substrate, counter-screen for MazEF activator project, dose response (AID 588502); type: functional
[5] = molecular target: T2, Heat shock factor protein 1 (Mus musculus, UniProt P38532); test: enhancement of HSF1-driven luciferase signal – cell-based, NIH3T3, luminescence, dose retest, confirmation (AID 435004); type: functional;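 note: stress induced by proteasome inhibitor MG132 added 30 min after compound; luciferase reporter driven by HSF1 response element in NIH3T3 cells; actives raise luminescence as potentiators of the MG132 stress response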
T2 sequence (P38532 whole entry): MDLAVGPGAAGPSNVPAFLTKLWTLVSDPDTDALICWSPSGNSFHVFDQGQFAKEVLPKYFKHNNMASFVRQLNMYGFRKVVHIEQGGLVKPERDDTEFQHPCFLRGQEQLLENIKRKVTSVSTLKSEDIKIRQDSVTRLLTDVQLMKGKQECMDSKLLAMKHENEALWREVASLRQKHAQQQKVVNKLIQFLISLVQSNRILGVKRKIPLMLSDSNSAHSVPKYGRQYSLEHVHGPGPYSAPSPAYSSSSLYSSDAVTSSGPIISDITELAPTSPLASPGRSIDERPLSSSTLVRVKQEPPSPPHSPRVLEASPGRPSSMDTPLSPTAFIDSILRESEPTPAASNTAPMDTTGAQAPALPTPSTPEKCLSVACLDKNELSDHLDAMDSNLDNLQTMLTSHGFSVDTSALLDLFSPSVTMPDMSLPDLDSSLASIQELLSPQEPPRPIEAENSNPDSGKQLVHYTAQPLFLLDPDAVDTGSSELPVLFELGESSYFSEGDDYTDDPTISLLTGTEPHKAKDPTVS

[6] = molecular target: Sphingosine 1-phosphate receptor 2 (Homo sapiens, UniProt O95136); test: Dose Response Cell Based Assay for Antagonists of the S1P2 Receptor. [Related pubchem assays: 856, 736 ]; type: functional
Chain of Sphingosine 1-phosphate receptor 2 (O95136 whole entry): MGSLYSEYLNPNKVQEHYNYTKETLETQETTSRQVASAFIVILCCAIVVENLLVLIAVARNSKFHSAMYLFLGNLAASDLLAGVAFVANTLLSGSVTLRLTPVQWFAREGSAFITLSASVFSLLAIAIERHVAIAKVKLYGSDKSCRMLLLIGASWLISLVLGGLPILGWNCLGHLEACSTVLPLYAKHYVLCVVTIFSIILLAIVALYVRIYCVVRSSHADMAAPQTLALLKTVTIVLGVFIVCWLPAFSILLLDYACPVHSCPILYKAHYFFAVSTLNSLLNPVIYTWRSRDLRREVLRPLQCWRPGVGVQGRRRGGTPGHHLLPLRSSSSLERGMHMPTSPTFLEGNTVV

[7] = molecular target: Heat shock protein HSP 90-alpha (Homo sapiens, UniProt P07900); type: functional, organism-based
[8] = molecular target: T3, Kappa-type opioid receptor (Homo sapiens, UniProt P41145); type: functional
T3 sequence (P41145 whole entry): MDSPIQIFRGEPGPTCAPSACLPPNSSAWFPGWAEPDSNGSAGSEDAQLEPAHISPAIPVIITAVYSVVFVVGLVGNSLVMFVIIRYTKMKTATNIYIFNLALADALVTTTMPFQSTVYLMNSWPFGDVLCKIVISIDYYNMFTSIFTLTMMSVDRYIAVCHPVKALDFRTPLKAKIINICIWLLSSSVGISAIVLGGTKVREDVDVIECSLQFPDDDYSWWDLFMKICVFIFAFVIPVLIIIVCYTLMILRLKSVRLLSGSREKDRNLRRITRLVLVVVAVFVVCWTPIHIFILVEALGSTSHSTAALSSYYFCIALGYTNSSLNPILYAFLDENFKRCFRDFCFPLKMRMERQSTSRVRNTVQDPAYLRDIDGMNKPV

[9] = molecular target: T3, Kappa-type opioid receptor; type: functional; remark: listed apart in the source
[10] = molecular target: Beta-galactosidase (Escherichia coli, UniProt Q8VNN2); type: functional
Chain of Beta-galactosidase (Q8VNN2 whole entry): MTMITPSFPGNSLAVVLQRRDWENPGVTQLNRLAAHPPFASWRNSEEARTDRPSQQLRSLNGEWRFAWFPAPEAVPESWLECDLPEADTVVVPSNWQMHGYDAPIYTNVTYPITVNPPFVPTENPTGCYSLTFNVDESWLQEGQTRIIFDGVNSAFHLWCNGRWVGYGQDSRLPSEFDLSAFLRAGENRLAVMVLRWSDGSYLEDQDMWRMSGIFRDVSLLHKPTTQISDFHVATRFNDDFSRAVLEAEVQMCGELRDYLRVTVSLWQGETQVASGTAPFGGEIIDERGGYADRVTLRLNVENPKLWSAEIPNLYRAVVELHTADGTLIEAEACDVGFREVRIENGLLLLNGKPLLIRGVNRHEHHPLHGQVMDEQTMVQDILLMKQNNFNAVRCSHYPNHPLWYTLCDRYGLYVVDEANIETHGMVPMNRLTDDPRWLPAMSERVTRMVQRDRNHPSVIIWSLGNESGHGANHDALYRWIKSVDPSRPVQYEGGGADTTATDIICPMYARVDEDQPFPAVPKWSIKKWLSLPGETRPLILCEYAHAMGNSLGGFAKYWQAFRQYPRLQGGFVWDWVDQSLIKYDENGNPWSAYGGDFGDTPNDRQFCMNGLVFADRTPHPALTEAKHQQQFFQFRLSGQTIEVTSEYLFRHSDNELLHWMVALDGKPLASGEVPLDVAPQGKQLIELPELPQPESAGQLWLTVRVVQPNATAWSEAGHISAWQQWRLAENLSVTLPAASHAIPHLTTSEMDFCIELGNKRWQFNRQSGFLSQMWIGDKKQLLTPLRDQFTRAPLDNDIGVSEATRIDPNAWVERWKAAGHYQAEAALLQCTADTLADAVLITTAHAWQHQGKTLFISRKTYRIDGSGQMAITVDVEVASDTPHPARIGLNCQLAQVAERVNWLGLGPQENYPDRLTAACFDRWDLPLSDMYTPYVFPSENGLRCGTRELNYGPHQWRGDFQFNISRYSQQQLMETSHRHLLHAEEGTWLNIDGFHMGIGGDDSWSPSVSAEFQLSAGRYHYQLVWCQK

[11] = RanGTP/importin-beta interaction disruptors – biochemical, plate reader, dry powder, dose response (AID 493048); parameters: species or system Homo sapiens

COc1ccc(N2CCCC2)c(NC(=O)c2ccc(Br)o2)c1
EC50 [1]: > 99 µM (inactive)
IC50 [2]: > 75.4 µM (not active)
IC50 [3]: 21.3 µM (inactive)
EC50 [4]: > 99 µM (inactive)

O=C(C#Cc1cccc([N+](=O)[O-])c1)c1ccccc1
EC50 [5]: 1.08 µM (inconclusive)
IC50 [6]: 3.69 µM (active)
AC50 [7]: 0.592 µM (active)
IC50 [8]: > 32 µM
IC50 [9]: 22.8 µM (inactive)
EC50 [10]: > 31.5 µM (inactive)

Cc1ccc(S(=O)(=O)c2cc3c(=O)n4cccc(C)c4nc3n(C3CCCCC3)c2=N)cc1
AC50 [11]: 410 µM (active)
